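Tested at 5 concentrations; 48 h exposure; 96-well plates; endpoints linearly interpolated, else capped at highest concentration. Definition used: TGI = concentration required for complete inhibition of growth.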
Legend:
Assay in all cases: NCI-60 cell line screen, 48 h
[1] = tested on: HOP-18 NSCLC
[2] = tested on: COLO 205 colon
[3] = tested on: LXFL 529 NSCLC
[4] = tested on: M14 melanoma
[5] = tested on: DMS 273 small cell lung
[6] = tested on: K-562 leukemia
[7] = tested on: M19-MEL melanoma
[8] = tested on: KM20L2 colon
[9] = tested on: DLD-1 colon
[10] = tested on: UO-31 renal
[11] = tested on: XF 498 CNS
[12] = tested on: DMS 114 small cell lung
[13] = tested on: RXF-631 renal
[14] = tested on: SNB-78 CNS

SMILES | TGI [1] | TGI [2] | TGI [3] | TGI [4] | TGI [5] | TGI [6] | TGI [7] | TGI [8] | TGI [9] | TGI [10] | TGI [11] | TGI [12] | TGI [13] | TGI [14]
CSC(=N)N1N=C2c3ccccc3CC[C@@H]2[C@@H]1c1ccccc1 | 47.8 µM | 26.6 µM | 24.2 µM | 27.4 µM | 28.5 µM | 39.7 µM | 29.4 µM | 25.6 µM | 31.7 µM | 22.4 µM | 30.6 µM | 28.7 µM | – | –
O=C1c2ccccc2C(=O)c2c(O)c(O)cc(O)c21 | – | > 100 µM | > 100 µM | > 100 µM | > 100 µM | > 100 µM | > 100 µM | – | > 100 µM | 49.2 µM | 86.3 µM | – | > 100 µM | > 100 µM
COc1cc(CCCC(O)COc2cccc3c2C2(O)CCCCCC32)cc(OC)c1 (stereo not given) | 33.1 µM | 5.4 µM | 33.5 µM | 35.7 µM | 34.8 µM | 31.1 µM | 32.7 µM | 28.1 µM | 36.6 µM | 28.9 µM | 35.8 µM | 23.4 µM | – | 43.3 µM
CCCCc1ccc(N2C(=O)c3cccnc3S2(=O)=O)cc1 | – | > 100 µM | – | > 100 µM | – | > 100 µM | – | – | – | > 100 µM | – | – | – | –

— PubChem BioAssay (NCI)
